GI50 and TGI data for nine compounds are collected here from PubChem BioAssay (NCI).

Holding throughout (assay): NCI tumour cell line growth inhibition, 48 h
Test [1] deals with HCT-15 colon.
Test [2] relates to IGROV1 ovarian.
Test [3] concerns U251 CNS.
The test system of test [4] is SK-MEL-5 melanoma.
The test system of test [5] is A498 renal.
The subject of test [6] is SF-268 CNS.
Test [7] has as its system SK-MEL-28 melanoma.
Test [8] has as its system SNB-75 CNS.
The subject of test [9] is DU-145 prostate.
The subject of test [10] is K-562 leukemia.

“And” between values parts separate entries of the source, which are not always exact repeats. Equal values may be shown once.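 All cell lines were grown in 96-well plates and treated with compound for 48 hours. GI50 = concentration required for 50% inhibition of growth. TGI denotes the concentration required for complete inhibition of growth.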 Where only a bound is given, the exact number is not on record here.

In the case of `COCCn1c2c([n+](Cc3cnccn3)c1C)C(=O)c1ccccc1C2=O`, the GI50 is 0.251 µM in test [1]; below 0.01 µM in test [2]; below 0.01 µM in [3]; below 0.01 µM in test [4]; 0.0987 µM in test [5]; below 0.01 µM in [6]. For the same compound, the GI50 in test [7] was 0.0164 µM; in test [8] it was 0.0313 µM; in [9], below 0.01 µM; in [10], below 0.01 µM. In addition, the TGI is above 100 µM in test [1]; below 0.0169 µM in test [2]; below 0.01 µM in test [3]; 0.0162 µM in [4]; 0.573 µM in test [5]; below 0.01 µM in test [6]. Further, the TGI in test [7] is 0.0419 µM; in test [8], 0.107 µM; in [9] it was 0.019 µM; in test [10], 5.6 µM.

For `Nc1nc(N)c2c(n1)CCC(S(=O)(=O)c1ccc3ccccc3c1)C2` (stereo not drawn), the TGI in test [1] is above 100 µM; in [2], above 100 µM; in [3] it was above 100 µM; in test [4], 19.2 µM; in test [5], 40 µM; in [6], above 100 µM. Besides, the TGI was above 100 µM in test [7], above 100 µM in test [8], above 100 µM in test [9] and 63.6 µM in test [10]. For the same compound, the GI50 in test [2] was 1.94 µM; in [8], 12.2 µM; in [10], 0.315 µM.

Turning to `CC[C@@]1(O)C(=O)OCc2c1cc1n(c2=O)Cc2c-1nc1cc(F)c(C)c3c1c2[C@@H](NC(=O)CO)CC3`, the GI50 in test [1] was 0.247 µM; in [2] it was 0.0449 µM; in test [3], below 0.01 µM; in [4], below 0.0109 µM; in test [5] it was below 0.011 µM; in [6], below 0.01 µM. Also, the GI50 in [7] was 0.176 µM; in test [8], below 0.01 µM; in test [9], below 0.01 µM; in [10] it was 0.0193 µM. Further, the TGI was above 100 µM in test [1]; 1.92 µM in [2]; 1.76 µM in test [3]; 0.119 µM in [4]; 0.0516 µM in test [5]; 1.95 µM in test [6]. Further, the TGI in test [7] is 4.56 µM; in [8], 0.133 µM; in test [9] it was above 100 µM; in test [10] it was above 100 µM.

For `c1ccc(CC(Nc2cccnc2)c2ccccc2)cc1` (stereo not drawn), the TGI in test [1] is above 100 µM; in test [2], above 100 µM; in [3], 42 µM; in test [4] it was 29.4 µM; in test [5], above 100 µM; in [6] it was above 100 µM. Further, the TGI is above 100 µM in [7], 60.1 µM in test [8], above 100 µM in test [9] and above 100 µM in test [10].

On to `NC1(C(=O)N[C@@H](CCO)c2ccc(Cl)cc2)CCN(c2ncnc3[nH]ccc23)CC1`, for which the GI50 in [1] was > 3.33 µM and 53.9 µM; in test [2], 0.102 µM and 0.27 µM; in [3], > 3.38 µM and 2 µM; in [4], > 3.51 µM and 19.1 µM; in test [5] it was 0.0709 µM and 0.135 µM; in test [6], > 2.26 µM and 32.2 µM. The GI50 was 1.69 µM and 7.47 µM in test [7]; 0.245 µM and 0.11 µM in [8]; > 2.74 µM and 29.7 µM in [9]; > 5.28 µM and 59.9 µM in [10]. In addition, the TGI in test [1] is above 100 µM; in test [2], above 100 µM; in test [3] it was above 100 µM; in [4] it was > 5.59 µM and 62 µM; in [5] it was 0.522 µM and 0.939 µM; in test [6], above 100 µM. For the same compound, the TGI in test [7] was above 100 µM; in test [8] it was > 3.28 µM and 2.19 µM; in test [9], above 100 µM; in [10] it was above 100 µM.

On to `O=c1/c(=C\c2ccc(Br)cc2)sc2n1C(c1ccc(Br)cc1)C1=C(N=2)c2ccc3ccccc3c2OCC1` (stereo not drawn), for which the GI50 in test [1], in [2], in [3], in test [4], in [5] and in [6] was above 100 µM in each case. Besides, the GI50 in test [7], in test [8], in test [9] and in [10] was above 100 µM in each case. In addition, the TGI in [1], in [2], in [3], in test [4], in test [5] and in [6] was above 100 µM each time. The TGI in test [7], in test [8], in [9] and in [10] was above 100 µM in each case.

For the compound `O=C1OCC2=C1C(c1cccc(Cl)c1)c1cc3c(cc1N2CCO)CCC3` (stereo not drawn), the GI50 was 0.0471 µM in test [1]; 0.121 µM in [2]; 0.0372 µM in [3]; 0.0291 µM in test [4]; 0.0215 µM in test [5]; 0.0653 µM in test [6]. Moreover, the GI50 is 0.0574 µM in [7], 0.027 µM in [8], 0.0406 µM in [9] and 0.0478 µM in test [10]. Moreover, the TGI in [1] is 12.6 µM; in test [2] it was 15.6 µM; in test [3] it was 4.5 µM; in test [4], 0.28 µM; in test [5], 0.0947 µM; in test [6] it was 10.5 µM. Also, the TGI in [7] came out at 20.2 µM; in test [8] it was 17.7 µM; in [9], 0.425 µM; in test [10], 14.4 µM.

For `CC#CC#C/C(=C/C=CC(=O)OC)SC`, the TGI in test [1], in test [2], in test [3], in test [4], in test [5] and in test [6] was above 100 µM throughout. Besides, the TGI in test [7], in test [8], in test [9] and in test [10] was above 100 µM throughout.

Consider `CCCCOC(=O)c1c(C)[nH]c(/C=C2\N=C(c3ccc[nH]3)C=C2OC)c1C`, for which the GI50 in test [1] was 0.053 µM; in test [2], 0.232 µM; in [3], 0.12 µM; in test [4], 0.1 µM; in test [5], 0.342 µM; in [6], 0.242 µM. Also, the GI50 is 0.509 µM in [7], 0.124 µM in test [8], 0.274 µM in test [9] and 0.155 µM in [10]. The TGI was determined as 1.29 µM in test [1]; 2.39 µM in test [2]; 1.76 µM in test [3]; 0.265 µM in test [4]; 2.16 µM in test [5]; 9.07 µM in test [6]. The TGI in test [7] stood at 2.8 µM; in test [8], 0.892 µM; in test [9], 6.37 µM; in test [10], 8.61 µM.
